Data set [1] in a line: Relaxivity determination of free (unbound) contrast agents. It is filed as physicochemical. The following applies: 37° C.
Method: The relaxation rates and Gd(III) concentrations were determined for contrast agent solutions in a range of concentrations. The relaxation rates of small molecule contrast agents were investigated using a 4 mM starting solution in water and diluted 1:1 four times. […] Relaxation rates were determined using a 60 MHz (1.5 T) NMR analyzer (Bruker Minispec MQ60) at 37° C. using 500 μL in a 7.5 mm inner diameter NMR tubes. T1 relaxation times were determined using monoexponential curve fitting and an inversion recovery pulse sequence with four averages for each of 10 data points.
The next data set has as its system HaloTag protein. Conditions: 37° C. As for the experimental part:
The HaloTag protein was expressed recombinantly after subcloning the target protein into the vector pMCSG7 to include an N-terminal His6-Tag followed by a TEV protease cleavage site. The protein was expressed in BL21(DE3) cells and purified by Nickel affinity chromatography. […] The HaloTag protein was labeled with a 5-fold molar excess of the Gd(III) complex at 4 degrees C. overnight. […] The labeled proteins were concentrated to a starting concentration of ˜600 μM for all relaxivity analyses.
Longitudinal relaxivities of the unbound agents were determined in water and the protein-bound contrast agents in 10 mM MOPS at 1.5 T, 37_C (Table 1).
To prepare the protein-bound contrast agent 12.5 mg protein was incubated overnight at 4° C. with five equivalents haloalkane label. Excess label was removed by size-exclusion chromatography (Econo-Pac 10 DG Disposable Chromatography Columns) and dialysis overnight into 10 mM MOPS, pH 7.4 (Spectrum Spectra/Por 4 Dialysis Membrane Tubing 12-14K MWCO) at 4° C. The protein-bound contrast agent was concentrated to a starting concentration of ˜600 μM for all relaxivity assays (Amicon Ultra-4, PLGC Ultracel-PL Membrane, 10 kDa). Agent binding was detected by mass spectrometry (Agilent 6510 Accurate-Mass Q-TOF LC/MS) and data deconvolution was performed with the included software (Agilent MassHunter Qualitative Analysis).
The relaxation rates and Gd(III) concentrations were determined for contrast agent solutions in a range of concentrations. The relaxation rates of small molecule contrast agents were investigated using a 4 mM starting solution in water and diluted 1:1 four times. Relaxation rates of protein bound contrast agents were measured using 600 μM starting solution in 10 mM MOPS and was diluted 1:1 four times. Relaxation rates were determined using a 60 MHz (1.5 T) NMR analyzer (Bruker Minispec MQ60) at 37° C. using 500 μL in a 7.5 mm inner diameter NMR tubes. T1 relaxation times were determined using monoexponential curve fitting and an inversion recovery pulse sequence with four averages for each of 10 data points.
Gd(III) concentrations for all samples were measured by ICP-MS. Samples were prepared by dissolving 10 μL into 90 μL trace nitric acid, and diluted to 10 mL with ultrapure water (nitric acid was added to generate a 3% solution. Samples contained a multi-element internal standard consisting of 5 ppb each Bi, Ho, In, Li(6), Sc, Tb, and Y (Spex Certiprep, Metuchen, N.J., USA). ICP-MS was performed on a computer-controlled (Plasmalab software) Thermo X series II ICP-MS (Thermo Fisher Scientific, Waltham, Mass., USA) equipped with an ESI SC-2 autosampler (Omaha, Nebr., USA). Each sample was acquired using 1 survey run (10 sweeps) and 3 main (peak jumping) runs (100 sweeps).

For data set [2] the following is noted: 1.5 T, 37 degrees C.; cited from earlier work.
In the next data set the target is HSA (Homo sapiens, UniProt P02768). The following applies: 1.5 T, 37 degrees C.; cited from earlier work.

Values joined by “and” are separate entries in the source; they are usually repeats but may differ in a detail not shown here. Equal values may be shown once. Read-outs that look alike come from different tables or passages of the source.

HSA, sequence (P02768 25-609): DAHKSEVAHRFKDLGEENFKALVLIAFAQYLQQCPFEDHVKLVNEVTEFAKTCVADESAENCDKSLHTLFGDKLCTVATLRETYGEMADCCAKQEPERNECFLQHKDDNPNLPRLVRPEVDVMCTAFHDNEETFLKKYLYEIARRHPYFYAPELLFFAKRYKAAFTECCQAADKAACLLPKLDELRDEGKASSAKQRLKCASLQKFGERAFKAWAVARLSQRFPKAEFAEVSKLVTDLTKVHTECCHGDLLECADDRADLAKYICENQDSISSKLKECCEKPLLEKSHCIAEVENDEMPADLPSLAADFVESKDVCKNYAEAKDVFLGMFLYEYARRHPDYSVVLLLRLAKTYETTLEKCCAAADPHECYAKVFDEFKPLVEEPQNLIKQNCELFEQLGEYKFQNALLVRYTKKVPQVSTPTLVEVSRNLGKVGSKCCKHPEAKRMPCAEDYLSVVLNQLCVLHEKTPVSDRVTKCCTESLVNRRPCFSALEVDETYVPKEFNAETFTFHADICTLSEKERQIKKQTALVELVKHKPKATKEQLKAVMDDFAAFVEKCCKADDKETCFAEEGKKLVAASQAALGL

In the case of `O=C([O-])CN1CCN(CCC(=O)NCCOCCOCCCCCCCl)CCN(CC(=O)[O-])CCN(CC(=O)[O-])CC1.[Gd+3]` [2CHTGd], the “r2 - F (transverse relaxivity, free)” value in data set [1] (60 MHz) is 3.9 ± 0.5 mM⁻¹ s⁻¹; in data set [1] (400 MHz), 4.1 ± 0.1 mM⁻¹ s⁻¹. The “r1 - F (longitudinal relaxivity, free)” value in data set [1] (400 MHz) is 3.3 ± 0.1 mM⁻¹ s⁻¹. Also, the “r1 - PB (longitudinal relaxivity, protein-bound)” value was 22.0 mM⁻¹ s⁻¹ and 22.0 ± 2.2 mM⁻¹ s⁻¹ in the data set on HaloTag protein (60 MHz (1.5 T), 10 mM MOPS); 5.1 ± 0.7 mM⁻¹ s⁻¹ in the data set on HaloTag protein (400 MHz). The results for the “r2 - PB (transverse relaxivity, protein-bound)” value in the data set with HaloTag protein (60 MHz) and in the data set with HaloTag protein (400 MHz) were 45.3 ± 5.5 mM⁻¹ s⁻¹ and 56 ± 8 mM⁻¹ s⁻¹, respectively.
As to `O=C([O-])CN(CCN(CC(=O)[O-])C[C@H](COP(=O)([O-])OC1CCC(c2ccccc2)(c2ccccc2)CC1)N(CC(=O)[O-])CC(=O)[O-])CC(=O)[O-].[Gd+3].[H+].[H+].[H+]` [MS-325], the “relaxivity, unbound” value in data set [2] is 5.5 mM⁻¹ s⁻¹. For the same compound, the “relaxivity when bound to HSA” value at HSA is 25 mM⁻¹ s⁻¹.
As for `O=C([O-])CN1CCN(CCCCC(=O)NCCOCCOCCCCCCCl)CCN(CC(=O)[O-])CCN(CC(=O)[O-])CC1.[Gd+3]` [4CHTGd], the “r2 - F (transverse relaxivity, free)” value in data set [1] (60 MHz) was 6.5 ± 0.5 mM⁻¹ s⁻¹; in data set [1] (400 MHz), 6.9 ± 0.2 mM⁻¹ s⁻¹. The “r1 - F (longitudinal relaxivity, free)” value in data set [1] (400 MHz) came out at 5.6 ± 0.2 mM⁻¹ s⁻¹. Besides, the “r1 - PB (longitudinal relaxivity, protein-bound)” value with HaloTag protein (60 MHz (1.5 T), 10 mM MOPS) came out at 8.6 ± 1.1 mM⁻¹ s⁻¹; in the data set with HaloTag protein (400 MHz), 3.3 ± 0.2 mM⁻¹ s⁻¹. For the same compound, the “r2 - PB (transverse relaxivity, protein-bound)” value with HaloTag protein (60 MHz) stood at 15.9 ± 2.3 mM⁻¹ s⁻¹; in the data set on HaloTag protein (400 MHz) it was 19.6 ± 1.3 mM⁻¹ s⁻¹.
For the compound `O=C([O-])CN1CCN(CC(=O)[O-])CCN(CC(=O)NCCOCCOCCCCCCCl)CCN(CC(=O)[O-])CC1.[Gd+3]` [1CHTGd], the “r2 - F (transverse relaxivity, free)” value in data set [1] (60 MHz) stood at 4.1 ± 0.2 mM⁻¹ s⁻¹; in data set [1] (400 MHz), 4.0 ± 0.1 mM⁻¹ s⁻¹. Further, the “r1 - F (longitudinal relaxivity, free)” value in data set [1] (400 MHz) worked out at 3.2 ± 0.1 mM⁻¹ s⁻¹. The “r1 - PB (longitudinal relaxivity, protein-bound)” value in the data set on HaloTag protein (60 MHz (1.5 T), 10 mM MOPS) is 13.4 ± 1.3 mM⁻¹ s⁻¹; in the data set with HaloTag protein (400 MHz), 4.0 ± 0.2 mM⁻¹ s⁻¹. Besides, the “r2 - PB (transverse relaxivity, protein-bound)” value with HaloTag protein (60 MHz) amounted to 25.2 ± 2.6 mM⁻¹ s⁻¹; in the data set with HaloTag protein (400 MHz), 28 ± 2 mM⁻¹ s⁻¹.
For `O=C([O-])CN1CCN(CCCC(=O)NCCOCCOCCCCCCCl)CCN(CC(=O)[O-])CCN(CC(=O)[O-])CC1.[Gd+3]` [3CHTGd], the figures for the “r2 - F (transverse relaxivity, free)” value in data set [1] (60 MHz) and in data set [1] (400 MHz) were 5.8 ± 0.1 mM⁻¹ s⁻¹ and 4.9 ± 0.2 mM⁻¹ s⁻¹, respectively. Moreover, the “r1 - F (longitudinal relaxivity, free)” value in data set [1] (400 MHz) turned out to be 6.0 ± 0.2 mM⁻¹ s⁻¹. Further, the “r1 - PB (longitudinal relaxivity, protein-bound)” value in the data set with HaloTag protein (60 MHz (1.5 T), 10 mM MOPS) is 7.6 ± 0.7 mM⁻¹ s⁻¹; in the data set on HaloTag protein (400 MHz), 2.7 ± 0.1 mM⁻¹ s⁻¹. In addition, the figures for the “r2 - PB (transverse relaxivity, protein-bound)” value in the data set with HaloTag protein (60 MHz) and in the data set on HaloTag protein (400 MHz) were 13.1 ± 0.9 mM⁻¹ s⁻¹ and 15.9 ± 0.1 mM⁻¹ s⁻¹, respectively.
